Experimental findings from patent publication US20220396565A1 (Hoffmann-La Roche Inc., priority 2020, published 2022) are described below.

Where a name gives a salt, the structure may show the parent alone.

One experiment relates to Acinetobacter baumannii ATCC17961. The experiment in a line: Antimicrobial susceptibility testing: 90% growth inhibitory concentration (IC90) determination, Iso-Sensitest broth. The conditions noted are these: Acinetobacter baumannii, ATCC17961, 90% growth inhibitory concentration, Acinetobacter baumannii ATCC17961, Iso-Sensitest broth; read-out: ATCC 17961 IC90. The class given is cell-based. The gist of the method: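 Growth at OD600 was monitored every 20 min for 16 h at 35±2 °C, with bacteria inoculated at ~5×10^(5) CFU/ml into Iso-Sensitest medium. Compounds were tested as 10-point twofold dilutions (e.g. 10–0.02 μM final). The 90% inhibitory concentration comes from the log-phase growth.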
In the case of `Cn1c(-c2ccc(OCF)c(F)c2F)cnc1C(=O)Nc1ccc(C(=O)N2CCN(C(=O)CC3(O)CCNCC3)CC2)c(Cl)c1` [Example 164, N-[3-chloro-4-[4-[2-(4-hydroxy-4-piperidyl)acetyl]piperazine-1-carbonyl]phenyl]-5-[2,3-difluoro-4-(fluoromethoxy)phenyl]-1-methyl-imidazole-2-carboxamide formate], the IC90 is 70 nM.

Regarding `COc1ccc(-c2cnc(C(=O)Nc3ccc(C(=O)N4CCN(C(=O)C5CNC5)CC4)c(Cl)c3)n2C)c(F)c1F` [Example 165, N-[4-[4-(azetidine-3-carbonyl)piperazine-1-carbonyl]-3-chloro-phenyl]-5-(2,3-difluoro-4-methoxy-phenyl)-1-methyl-imidazole-2-carboxamide formate], the concentration for an effect of 90% (IC90) was determined as 50 nM.

Consider `COc1ccc(-c2cnc(C(=O)Nc3ccc(C(=O)N4CCN(C(=O)C5(O)CCNCC5)CC4)c(Cl)c3)n2C)c(F)c1F` [Example 166, N-[3-chloro-4-[4-(4-hydroxypiperidine-4-carbonyl)piperazine-1-carbonyl]phenyl]-5-(2,3-difluoro-4-methoxy-phenyl)-1-methyl-imidazole-2-carboxamide formate], for which the IC90 came out at 50 nM.

For the molecule `COc1ccc(-c2cnc(C(=O)Nc3ccc(C(=O)N4CCN(C(=O)C[C@@H]5CCNC5)CC4)c(Cl)c3)n2C)c(Cl)c1F` [Example 167, 5-(2-chloro-3-fluoro-4-methoxy-phenyl)-N-[3-chloro-4-[4-[2-[(3S)-pyrrolidin-3-yl]acetyl]piperazine-1-carbonyl]phenyl]-1-methyl-imidazole-2-carboxamide formate], the IC90 turned out to be 50 nM.

For `COc1c(F)cc(-c2cnc(C(=O)Nc3ccc(C(=O)N4CCN(C(=O)C5CCNCC5)CC4)c(Cl)c3)n2C)c(F)c1F` [Example 168, N-[3-chloro-4-[4-(piperidine-4-carbonyl)piperazine-1-carbonyl]phenyl]-1-methyl-5-(2,3,5-trifluoro-4-methoxy-phenyl)imidazole-2-carboxamide formate], the concentration for an effect of 90% (IC90) worked out at 150 nM.

In the case of `Cn1c(-c2ccc(OC(F)F)c(F)c2Cl)cnc1C(=O)Nc1ccc(C(=O)N2CCN(C(=O)C3(O)CCNCC3)CC2)c(Cl)c1` [Example 169, 5-[2-chloro-4-(difluoromethoxy)-3-fluoro-phenyl]-N-[3-chloro-4-[4-(4-hydroxypiperidine-4-carbonyl)piperazine-1-carbonyl]phenyl]-1-methyl-imidazole-2-carboxamide formate], the IC90 came to 30 nM.

As to `CCOc1ccc(-c2cnc(C(=O)Nc3ccc(C(=O)N4CCN(C(=O)C5(O)CCNCC5)CC4)c(Cl)c3)n2C)c(F)c1F` [Example 170, N-[3-chloro-4-[4-(4-hydroxypiperidine-4-carbonyl)piperazine-1-carbonyl]phenyl]-5-(4-ethoxy-2,3-difluoro-phenyl)-1-methyl-imidazole-2-carboxamide formate], the IC90 worked out at 60 nM.

On to `Cn1c(-c2ccc(OC(F)F)c(F)c2Cl)cnc1C(=O)Nc1ccc(C(=O)N2CCN(C(=O)CC3(O)CCNCC3)CC2)c(Cl)c1` [Example 172, 5-[2-chloro-4-(difluoromethoxy)-3-fluoro-phenyl]-N-[3-chloro-4-[4-[2-(4-hydroxy-4-piperidyl)acetyl]piperazine-1-carbonyl]phenyl]-1-methyl-imidazole-2-carboxamide formate], for which the IC90 worked out at 50 nM.

With `Cn1c(-c2ccc(OCF)c(F)c2Cl)cnc1C(=O)Nc1ccc(C(=O)N2CCN(C(=O)CC3(O)CCNCC3)CC2)c(Cl)c1` [Example 173, 5-[2-chloro-3-fluoro-4-(fluoromethoxy)phenyl]-N-[3-chloro-4-[4-[2-(4-hydroxy-4-piperidyl)acetyl]piperazine-1-carbonyl]phenyl]-1-methyl-imidazole-2-carboxamide formate], the IC90 came to 50 nM.

For the molecule `Cn1c(-c2ccc(OC(F)F)c(F)c2F)cnc1C(=O)Nc1ccc(C(=O)N2CCN(C(=O)C3CCN(C(=O)C4CNC4)CC3)CC2)c(Cl)c1` [Example 174, N-[4-[4-[1-(azetidine-3-carbonyl)piperidine-4-carbonyl]piperazine-1-carbonyl]-3-chloro-phenyl]-5-[4-(difluoromethoxy)-2,3-difluoro-phenyl]-1-methyl-imidazole-2-carboxamide formate], the IC90 was 70 nM.

Turning to `CN(C)CC(=O)N1CCN(C(=O)c2ccc(NC(=O)c3ncc(-c4ccc(OC(F)F)cc4F)n3C)cc2Cl)CC1` [Example 175, N-[3-chloro-4-[4-[2-(dimethylamino)acetyl]piperazine-1-carbonyl]phenyl]-5-[4-(difluoromethoxy)-2-fluoro-phenyl]-1-methyl-imidazole-2-carboxamide formate], the IC90 came out at 50 nM.

For the molecule `CN(C)CC(=O)N1CCN(C(=O)c2ccc(NC(=O)c3ncc(-c4ccc(OC(F)F)c(F)c4)n3C)cc2Cl)CC1` [Example 176, N-[3-chloro-4-[4-[2-(dimethylamino)acetyl]piperazine-1-carbonyl]phenyl]-5-[4-(difluoromethoxy)-3-fluoro-phenyl]-1-methyl-imidazole-2-carboxamide formate], the IC90 came to 80 nM.

Consider `COc1ccc(-c2cnc(C(=O)Nc3ccc(C(=O)N4CCN(C(=O)CC5(O)CNC5)CC4)c(Cl)c3)n2C)c(F)c1F` [Example 177, N-[3-chloro-4-[4-[2-(3-hydroxyazetidin-3-yl)acetyl]piperazine-1-carbonyl]phenyl]-5-(2,3-difluoro-4-methoxy-phenyl)-1-methyl-imidazole-2-carboxamide formate], for which the IC90 came out at 50 nM.

As to `Cn1c(-c2ccc(OC(F)F)cc2F)cnc1C(=O)Nc1ccc(C(=O)N2CCN(C(=O)CC3CNC3)CC2)c(Cl)c1` [Example 178, N-[4-[4-[2-(azetidin-3-yl)acetyl]piperazine-1-carbonyl]-3-chloro-phenyl]-5-[4-(difluoromethoxy)-2-fluoro-phenyl]-1-methyl-imidazole-2-carboxamide formate], the IC90 came out at 70 nM.

As for `Cn1c(-c2ccc(OC(F)F)c(F)c2F)cnc1C(=O)Nc1ccc(C(=O)N2CCN(C(=O)C3CCN(C(=O)C4(O)CCNCC4)CC3)CC2)c(Cl)c1` [Example 179, N-[3-chloro-4-[4-[1-(4-hydroxypiperidine-4-carbonyl)piperidine-4-carbonyl]piperazine-1-carbonyl]phenyl]-5-[4-(difluoromethoxy)-2,3-difluoro-phenyl]-1-methyl-imidazole-2-carboxamide formate], the IC90 was found to be 50 nM.

As for `Cn1c(-c2ccc(OC(F)F)cc2F)cnc1C(=O)Nc1ccc(C(=O)N2CCN(C(=O)C3CCNCC3)CC2)c(Cl)c1` [Example 180, N-[3-chloro-4-[4-(piperidine-4-carbonyl)piperazine-1-carbonyl]phenyl]-5-[4-(difluoromethoxy)-2-fluoro-phenyl]-1-methyl-imidazole-2-carboxamide formate], the IC90 amounted to 60 nM.

As to `Cn1c(-c2ccc(OC(F)F)c(F)c2)cnc1C(=O)Nc1ccc(C(=O)N2CCN(C(=O)C[C@@H]3CCCN3)CC2)c(Cl)c1` [Example 181, N-[3-chloro-4-[4-[2-[(2S)-pyrrolidin-2-yl]acetyl]piperazine-1-carbonyl]phenyl]-5-[4-(difluoromethoxy)-3-fluoro-phenyl]-1-methyl-imidazole-2-carboxamide formate], the 90% effect concentration (IC90) is 130 nM.

On to `COc1ccc(-c2cnc(C(=O)Nc3ccc(C(=O)N4CCN(C(=O)CC5(O)CCNCC5)CC4)c(Cl)c3)n2C)c(Cl)c1F` [Example 182, 5-(2-chloro-3-fluoro-4-methoxy-phenyl)-N-[3-chloro-4-[4-[2-(4-hydroxy-4-piperidyl)acetyl]piperazine-1-carbonyl]phenyl]-1-methyl-imidazole-2-carboxamide formate], for which the IC90 came out at 70 nM.

As for `CCOc1ccc(-c2cnc(C(=O)Nc3ccc(C(=O)N4CCN(C(=O)CC5(O)CCNCC5)CC4)c(Cl)c3)n2C)c(F)c1F` [Example 183, N-[3-chloro-4-[4-[2-(4-hydroxy-4-piperidyl)acetyl]piperazine-1-carbonyl]phenyl]-5-(4-ethoxy-2,3-difluoro-phenyl)-1-methyl-imidazole-2-carboxamide formate], the concentration for an effect of 90% (IC90) was 80 nM.

Turning to `COc1ccc(-c2cnc(C(=O)Nc3ccc(C(=O)N4CCN(C(=O)[C@H]5[C@@H]6CNC[C@@H]65)CC4)c(Cl)c3)n2C)c(F)c1F` [Example 184, N-[4-[4-[(1R,5S)-3-azabicyclo[3.1.0]hexane-6-carbonyl]piperazine-1-carbonyl]-3-chloro-phenyl]-5-(2,3-difluoro-4-methoxy-phenyl)-1-methyl-imidazole-2-carboxamide trifluoroacetate], the IC90 was found to be 20 nM.

As for `COc1ccc(-c2cnc(C(=O)Nc3ccc(C(=O)N4CCN(C(=O)C5CC(CN)C5)CC4)c(Cl)c3)n2C)c(F)c1F` (stereo not drawn) [Example 185, N-[4-[4-[3-(aminomethyl)cyclobutanecarbonyl]piperazine-1-carbonyl]-3-chloro-phenyl]-5-(2,3-difluoro-4-methoxy-phenyl)-1-methyl-imidazole-2-carboxamide formate], the IC90 turned out to be 60 nM.

As for `COc1ccc(-c2cnc(C(=O)Nc3ccc(C(=O)N4C[C@@H]5CN(C(=O)C6CCNCC6)C[C@@H]5C4)c(Cl)c3)n2C)c(F)c1F` [Example 186, N-[4-[(3aR,6aS)-5-(piperidine-4-carbonyl)-1,3,3a,4,6,6a-hexahydropyrrolo[3,4-c]pyrrole-2-carbonyl]-3-chloro-phenyl]-5-(2,3-difluoro-4-methoxy-phenyl)-1-methyl-idazole-2-carboxamide formate], the concentration for an effect of 90% (IC90) was found to be 100 nM.

In the case of `COc1ccc(-c2cnc(C(=O)Nc3ccc(C(=O)N4CC(NC(=O)C5CCNCC5)C4)c(Cl)c3)n2C)c(F)c1F` [Example 187, N-[1-[2-chloro-4-[[5-(2,3-difluoro-4-methoxy-phenyl)-1-methyl-imidazole-2-carbonyl]amino]benzoyl]azetidin-3-yl]piperidine-4-carboxamide formate], the IC90 worked out at 110 nM.

Staying with this experiment, now noted: Acinetobacter baumannii, ATCC17961, read-out: ATCC 17961 IC90.
As for `Cn1c(-c2ccc(OCF)c(F)c2F)cnc1C(=O)Nc1ccc(C(=O)N2CCN(C(=O)C3CNCC(O)C3)CC2)c(Cl)c1` (stereo not drawn) [Example 171, formate], the 90% effect concentration (IC90) turned out to be 50 nM.

The IC90 is the concentration at which the effect reaches the 90% level.
